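Each compound was tested at five concentrations against cells in 96-well plates for 48 hours. Here, GI50 denotes the concentration required for 50% inhibition of growth. TGI denotes the concentration required for complete inhibition of growth.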

TGI and GI50 data for ten compounds are collected here from PubChem BioAssay (NCI).

Among the test systems are 786-0 renal; A549 NSCLC; HOP-62 NSCLC; MOLT-4 leukemia; NCI-H460 lung; NCI-H522 lung; OVCAR-4 ovarian; SF-268 CNS; SK-OV-3 ovarian; UO-31 renal.
Assay in all cases: NCI anticancer screen, dose series, 48 h

Consider `Nc1nc(CCC(=O)Nc2cccc(C(F)(F)F)c2)cc(-c2ccc3ccccc3c2)n1`, for which the TGI in the assay with 786-0 renal, in the assay with A549 NSCLC, with HOP-62 NSCLC, in the assay with MOLT-4 leukemia, in the assay on NCI-H460 lung and in the assay on NCI-H522 lung was > 100 µM in each case. The TGI in the assay on OVCAR-4 ovarian, with SF-268 CNS, in the assay on SK-OV-3 ovarian and in the assay with UO-31 renal was > 100 µM throughout.
For the compound `CCOC(=O)COS(=O)(=O)C(F)(F)F`, the TGI in the assay with 786-0 renal, in the assay on A549 NSCLC, in the assay on HOP-62 NSCLC, in the assay with MOLT-4 leukemia, in the assay with NCI-H460 lung and with NCI-H522 lung was > 100 µM each time. The TGI in the assay with OVCAR-4 ovarian, in the assay with SF-268 CNS, in the assay with SK-OV-3 ovarian and with UO-31 renal was > 100 µM in each case.
As to `Fc1cccc(Cl)c1/C=N\N=C1c2ccccc2-c2ccccc21`, the TGI in the assay on 786-0 renal, in the assay on A549 NSCLC, in the assay on HOP-62 NSCLC, in the assay on MOLT-4 leukemia, in the assay with NCI-H460 lung and in the assay on NCI-H522 lung was > 100 µM throughout. Moreover, the TGI with OVCAR-4 ovarian, in the assay with SF-268 CNS, with SK-OV-3 ovarian and with UO-31 renal was > 100 µM each time.
Take `CC1CCN(CC(=O)N2c3ccccc3Sc3cc4ccccc4cc32)CC1`: the TGI with 786-0 renal, in the assay with A549 NSCLC, with HOP-62 NSCLC, in the assay with MOLT-4 leukemia, with NCI-H460 lung and in the assay with NCI-H522 lung was > 100 µM throughout. Moreover, the TGI with OVCAR-4 ovarian, with SF-268 CNS, with SK-OV-3 ovarian and in the assay on UO-31 renal was > 100 µM in each case.
On to `Cc1nn(-c2ccccc2)c(-c2ccccc2[N+](=O)[O-])c1CC#N`, for which the TGI in the assay with 786-0 renal, in the assay on A549 NSCLC, in the assay on HOP-62 NSCLC, in the assay on MOLT-4 leukemia, in the assay on NCI-H460 lung and with NCI-H522 lung was > 100 µM throughout. Also, the TGI in the assay with OVCAR-4 ovarian, in the assay with SF-268 CNS, with SK-OV-3 ovarian and in the assay with UO-31 renal was > 100 µM each time.
For `COc1cc(Br)c(C=Nc2cccc3ccc(OS(=O)(=O)c4cccc([N+](=O)[O-])c4)cc23)cc1OC`, the TGI with 786-0 renal, in the assay on A549 NSCLC, with HOP-62 NSCLC, with MOLT-4 leukemia, with NCI-H460 lung and in the assay on NCI-H522 lung was > 100 µM throughout. Besides, the TGI in the assay with OVCAR-4 ovarian, with SF-268 CNS, in the assay on SK-OV-3 ovarian and in the assay with UO-31 renal was > 100 µM each time.
Take `CC(=O)Nc1ccc(S(=O)(=O)NNC(=O)c2cccnc2Nc2ccc(Cl)cc2)cc1`: the GI50 in the assay on 786-0 renal was 48 µM; with A549 NSCLC, 32.4 µM; in the assay on HOP-62 NSCLC it was > 100 µM; in the assay with MOLT-4 leukemia, 49.6 µM; in the assay with NCI-H460 lung, 4.69 µM; in the assay on NCI-H522 lung, 6.44 µM. The GI50 was 44.9 µM in the assay on OVCAR-4 ovarian, 22 µM in the assay on SF-268 CNS, 57.5 µM in the assay with SK-OV-3 ovarian and 91.5 µM in the assay with UO-31 renal. For the same compound, the TGI in the assay on 786-0 renal, with A549 NSCLC, in the assay on HOP-62 NSCLC, with MOLT-4 leukemia, with NCI-H460 lung and with NCI-H522 lung was > 100 µM in each case. Moreover, the TGI in the assay on OVCAR-4 ovarian, in the assay with SF-268 CNS, with SK-OV-3 ovarian and in the assay with UO-31 renal was > 100 µM each time.
Consider `C/C(=N\NC(N)=S)c1nc2ccc(Cl)cc2[nH]1`, for which the GI50 with 786-0 renal is 1.59 µM; with A549 NSCLC, 2.3 µM; in the assay on HOP-62 NSCLC, 2.7 µM; in the assay on MOLT-4 leukemia it was 1.78 µM; in the assay with NCI-H460 lung, 1.33 µM; in the assay on NCI-H522 lung, 1.24 µM. In addition, the GI50 in the assay on OVCAR-4 ovarian was 1.31 µM; in the assay on SF-268 CNS, 2.03 µM; with SK-OV-3 ovarian, 2.31 µM; in the assay on UO-31 renal it was 0.3 µM. Further, the TGI in the assay on 786-0 renal is 7.96 µM; with A549 NSCLC, 9.95 µM; with HOP-62 NSCLC, 11.9 µM; in the assay with MOLT-4 leukemia it was > 50 µM; with NCI-H460 lung, 5.83 µM; with NCI-H522 lung, 7.9 µM. For the same compound, the TGI with OVCAR-4 ovarian came out at 19.9 µM; with SF-268 CNS, 11.3 µM; in the assay on SK-OV-3 ovarian, 9.19 µM; in the assay with UO-31 renal, 3.27 µM.
For the compound `O=C1Nc2cccc3cc(NCC(O)CCl)cc1c23` (stereo not given), the TGI in the assay on 786-0 renal was > 100 µM; in the assay with A549 NSCLC it was > 100 µM; with HOP-62 NSCLC, > 100 µM; in the assay on MOLT-4 leukemia it was 95.2 µM; in the assay on NCI-H460 lung, > 100 µM; in the assay on NCI-H522 lung, > 100 µM. Moreover, the TGI in the assay on OVCAR-4 ovarian was > 100 µM; with SF-268 CNS, > 100 µM; in the assay on SK-OV-3 ovarian it was > 100 µM; in the assay on UO-31 renal, 92.1 µM.
As to `CCOc1ccccc1NC(=O)CCc1nc(=S)[nH][nH]1`, the TGI in the assay on 786-0 renal, in the assay on A549 NSCLC, in the assay with HOP-62 NSCLC, with MOLT-4 leukemia, in the assay on NCI-H460 lung and in the assay with NCI-H522 lung was > 100 µM throughout. In addition, the TGI in the assay with OVCAR-4 ovarian, with SF-268 CNS, in the assay on SK-OV-3 ovarian and in the assay with UO-31 renal was > 100 µM throughout.
